# Experimental data: patent EP2141163A1, “Substituted thiazolidinones, their production and utilisation as medicine” (Bayer Schering Pharma Aktiengesellschaft, priority 2008, dated 2010)
# Where two headings read alike, the source gives them in different places.
# Columns and labels:
# MCF-7 = assay: Proliferation assay (crystal violet staining), MCF-7; type: cell-based, human; details: tumour cell proliferation, 4 days incubation, read-out: Inhibition IC50 [M] (MCF-7)
# Experimental: (§1) Kultivierte humane Tumorzellen (MCF7, […] menschliche Mammakarzinomazellen, bezogen von ATCC HTB22; NCI-H460, menschliche nicht kleinzellige Lungenkarzinomazellen, ATCC HTB-177; DU 145, hormonunabhängige menschliche Prostatakarzinomazellen, ATCC HTB-81; HeLa-MaTu, humane Cervixkarzinomazellen, bezogen von EPO-GmbH, Berlin,) werden in einer Dichte von 5000 (MCF7, DU145) bzw. 3000 (NCI-H460, HeLa-MaTu) Zellen/Messpunkt in einer 96-Loch Multititerplatte in 200 µl des entsprechenden Wachstumsmediums ausplattiert. Nach 24 Stunden werden die Zellen einer Platte (Nullpunkt-Platte) mit Kristallviolett gefärbt (s.u.), während das Medium der anderen Platten durch frisches Kulturmedium (200 µl), dem die Testsubstanzen in verschiedenen Konzentrationen (0 µM, sowie im Bereich 0,01 - 30 µM; die finale Konzentration des Lösungsmittels Dimethylsulfoxid beträgt 0,5%) zugesetzt sind, ersetzt. Die Zellen werden für 4 Tage in Anwesenheit der Testsubstanzen inkubiert. Die Zellproliferation wird durch Färbung der Zellen mit Kristallviolett bestimmt: Die Zellen werden durch Zugabe von 20 µl/Messpunkt einer 11%igen Glutaraldehyd-Lösung 15 min bei Raumtemperatur fixiert. Nach dreimaligem Waschen der fixierten Zellen mit Wasser werden die Platten bei Raumtemperatur getrocknet. Die Zellen werden durch Zugabe von 100 µl/Messpunkt einer 0,1%igen Kristallviolett-Lösung (pH durch Zugabe von Essigsäure auf pH3 eingestellt) gefärbt. Nach dreimaligem Waschen der gefärbten Zellen mit Wasser werden die Platten bei Raumtemperatur getrocknet. Der Farbstoff wird durch Zugabe von 100 µl/Messpunkt einer 10%igen Essigsäure-Lösung gelöst. Die Extinktion wird photometrisch bei einer Wellenlänge von 595 nm bestimmt. Die prozentuale Änderung des Zellwachstums wird durch Normalisierung der Messwerte auf die Extinktionwerte der Nullpunktplatte (=0%) und die Extinktion der unbehandelten (0 µM) Zellen (=100%) berechnet. IC50-Werte werden nach einer 4-Parameterkurvenanpassung mit Hilfe eines Firmeneigenen Computerprogramms berechnet.
# PLK-1 = target: T1, PLK-1 (Homo sapiens, UniProt P53350); assay: PLK-1 enzyme assay at 10 mM ATP (indirect HTRF assay); type: biochemical; details: read-out: Inhibition PLK-1 IC50 [M] (10 mM ATP)
# T1 construct: Fusionsprotein bestehend aus GST und Plk (Kinase Domäne 33-345; MW 36 kDa, conc 0,8 µg/µl); GST; made in house; host or cells: Hi5 insect cells
# Experimental: PLK Enzym-Assay (10 mM ATP)
# Für den Kinaseassay wird aus Insektenzellen (Hi5) exprimiertes, durch Glutathion-Sepharose-Affinitätschromatographie und anschließender Gel-filtration (Suerdex 75) gereinigtes rekombinantes Fusionsprotein bestehend aus GST und Plk (Kinase Domäne 33-345; MW 36 kDa, conc 0,8 µg/µl) verwendet. Aliqots hiervon werden in flüssigem Stickstoff weggefroren und bei -80°C gelagert und nach dem Auftauen nur einmal verwendet.
# Bei dem verwendeten Assay handelt es sich um einen indirekten HTRF-Assay, bei dem folgende Materialien und Verfahrensweisen zum Einsatz kamen. Als Substrat für die Kinasereaktion wird das biotinylierte Peptid Btn-Ahx-KKLNRTLSFAEPG-Amid x TFA, von Biosyntan, Probennr.: 6178.1 (C-Terminus in Amidform) verwendet. Hierbei handelt es sich um eine artifizielle Sequenz, die von keinem bekannten Protein abgeleitet wurde.
# 50 nl der in 100% Dimethylsulfoxid (DMSO) gelösten Testverbindungen (Endkonzentrationen : 0 µM und Konzentrationen im Bereich von 0,001 - 20 µM) werden mit 2 µl Enzym Arbeitslösung (0,039 ng/µl Plk-1 im Arbeitspuffer [25 mM MgCl2; 1mM DTT; 50 mM Hepes pH 7,0; 0,01% NP40; 1x Complete; 0,05% BSA] für 30 min vorinkubiert. Anschließend wird die Kinase-Reaktion durch Zugabe von 3 µl Substratlösung [16,7 mM Adenosintriphosphate (ATP) und 1,4 µM Substratpeptid (Biotin-Ttds- KKLNRTLSFAEPG -NH2)] in Arbeitspuffer gestartet, und nach 30 min durch Zugabe einer Abstopp-Lösung (100 mM EDTA, 100 mM Hepes pH 7,5, 800 mM Potassiumfluoride, 0,12% BSA, 0,4 µM SA-XLent (0,05 µM, von CIS bio international, Marcoule, Frankreich), Eu^3+ Cryptate-conjugated Rabbit anti-Mouse IgG (1,5 nM; ein mit Europiumkryptat markierter Anti-Maus-IgG-Antikörper von CIS bio international, Marcoule, Frankreich), 1 nM Anti-phospho-Serine Kinase (ein phospho-spezifischer Antikörper von Upstate Biotechnology, Dundee, Schottland), gestoppt, und bei 4°C über Nacht inkubiert. Danach wird die Menge des phosphorylierten Substratpeptids durch Messung des Resonanzenergietransfers vom Europium-markierten Antikörperkomplex zum Streptavidine-XLent bestimmt. Zu diesem Zweck wird die Fluoreszenzemission bei 620 nm und 665 nm nach Anregung bei 350 nm in einem HTRF-Messgerät, z. B. Rubystar (BMG Labtechnologies, Offenburg, Deutschland) oder Viewlux (Perkin-Elmer), bestimmt. Das Verhältnis der Emissionen bei 665 nm und bei 620 nm wird als Maß für die Menge des phosphorylierten Substratpeptids verwendet. Die Daten werden normalisiert (Enzymreaktion ohne Inhibitor = 0 % Inhibition, alle anderen Assaykomponenten, aber kein Enzym = 100 % Inhibition), und IC50-Werte werden durch einen 4 Parameter-Fit mit einer hauseigenen Software berechnet.
# NCI-H460 = assay: Proliferation assay (crystal violet staining), NCI-H460; type: cell-based, human; details: tumour cell proliferation, 4 days incubation, read-out: Inhibition IC50 [M] (NCI-H460)
# Experimental: as §1
# DU145 = assay: Proliferation assay (crystal violet staining), DU145; type: cell-based, human; details: tumour cell proliferation, 4 days incubation, read-out: Inhibition IC50 [M] (DU145)
# Experimental: as §1
# T1 sequence (P53350 33-345): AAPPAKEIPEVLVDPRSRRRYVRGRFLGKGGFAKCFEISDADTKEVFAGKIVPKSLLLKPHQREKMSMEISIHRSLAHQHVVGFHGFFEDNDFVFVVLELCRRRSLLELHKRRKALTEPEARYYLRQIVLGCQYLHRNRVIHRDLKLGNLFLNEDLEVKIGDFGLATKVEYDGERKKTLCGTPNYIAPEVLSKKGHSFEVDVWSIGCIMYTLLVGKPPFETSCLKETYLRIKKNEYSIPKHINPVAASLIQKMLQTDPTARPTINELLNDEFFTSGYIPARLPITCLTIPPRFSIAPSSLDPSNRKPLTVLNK
Structure (SMILES),"IC50 (MCF-7; Homo sapiens, MCF7, 96 h) [M]",IC50 (PLK-1) [M],"IC50 (NCI-H460; Homo sapiens, 96 h) [M]","IC50 (DU145; Homo sapiens, DU-145, 96 h) [M]",IC50 (MCF-7) [M],IC50 (NCI-H460) [M],IC50 (DU145) [M]
CCn1c(=O)c(=CNc2ccc3ccn([C@H]4CCCC[C@H]4N(C)C)c3c2)s/c1=C(/C#N)C(=O)NCC#N (relative stereo) [B193],1.8e-07,1.4e-08,2.6e-07,1.8e-07,–,–,–
CCn1c(=C(C#N)C(=O)NCC(F)(F)F)sc(=CNc2ccc3c(c2)N(C2CCN(C)CC2)CC3)c1=O [B01],4.4e-07,5.7e-09,1.9e-07,1.3e-07,–,–,–
"CCn1c(=O)c(=CNc2ccc3ccn(C4CCN(C)CC4)c3c2)s/c1=C(/C#N)C(=O)NCC(F)(F)F [B03, (Z,E/Z)-2-Cyan-2-[3-ethyl-5-[[[1-(1-methyl-4-piperidinyl)-1H-indol-6-yl]amino]methylen]-4-oxo-2-thiazolidinyliden]-N-(2,2,2-trifluorethyl)acetamid]",–,1.6e-09,–,–,1.4e-07,9.6e-08,5.1e-08
CCn1c(=C(C#N)C(=O)NCC#N)sc(=CNc2ccc3ccn(C4CCN(C)CC4)c3c2)c1=O [B04],7.2e-08,2.9e-09,1.4e-07,2.9e-08,–,–,–
CCn1c(=C(C#N)C(=O)NC(C)(C)CO)sc(=CNc2ccc3ccn(C4CCN(C)CC4)c3c2)c1=O [B06],2.4e-07,1e-08,1.5e-07,1.2e-07,–,–,–
CCn1c(=O)c(=CNc2ccc3c(CN4CCCCC4)cn(C)c3c2)s/c1=C(/C#N)C(=O)NCC#N [B08],6.1e-07,5.4e-09,3.3e-07,1.4e-07,–,–,–
CCn1c(=O)c(=CNc2ccc3c(c2)c(CCN2CCCC2)cn3C)s/c1=C(/C#N)C(=O)NCC(F)(F)F [B35],6.4e-07,5.9e-09,3.3e-07,1.8e-07,–,–,–
CCn1c(=C(C#N)C(=O)NCC(F)(F)F)sc(=CNc2ccc3c(c2)c(CCN(C)C)cn3C)c1=O [B39],3.8e-07,6.1e-09,4.8e-07,1.8e-07,–,–,–
CCn1c(=C(C#N)C(=O)NCC#N)sc(=CNc2ccc3cnn(C4CCN(C(C)C)CC4)c3c2)c1=O [B44],2e-07,1.1e-09,4.9e-07,1.1e-07,–,–,–
CCN1CCCC1Cn1ccc2ccc(NC=c3sc(=C(C#N)C(=O)NCC(F)(F)F)n(CC)c3=O)cc21 (centres unmarked) [B58],3.7e-07,2e-08,4.8e-07,3.2e-07,–,–,–
CCn1c(=C(C#N)C(=O)NCC(F)(F)F)sc(=CNc2ccc3ccn(C4CCOCC4)c3c2)c1=O [B59],3.9e-07,3.7e-08,1.8e-07,1.7e-07,–,–,–
CCn1c(=C(C#N)C(=O)NCC(F)(F)F)sc(=CNc2ccc3ccn(C4CCN(CC(N)=O)CC4)c3c2)c1=O [B71],1.4e-07,8.2e-09,2.1e-07,1.2e-07,–,–,–
CCn1c(=C(C#N)C(=O)NCC(F)(F)F)sc(=CNc2ccc3ccn(C4CCN(CC(=O)OC)CC4)c3c2)c1=O [B72],1.2e-07,3.9e-09,1.1e-07,1.2e-07,–,–,–
CCn1c(=C(C#N)C(=O)NCC(F)(F)F)sc(=CNc2ccc3ccn(CC(=O)N(C)C)c3c2)c1=O [B80],3.1e-07,4.9e-08,8.9e-07,5.1e-07,–,–,–
CCn1c(=C(C#N)C(=O)NCC#N)sc(=CNc2ccc3cn(C4CCN(C(C)C)CC4)nc3c2)c1=O [B102],1.9e-07,2.2e-08,6.2e-07,2.8e-07,–,–,–
CCCN1CCC(c2cn(CC)c3ccc(NC=c4sc(=C(C#N)C(=O)NCC#N)n(CC)c4=O)cc23)CC1 [B109],1.4e-07,3.5e-09,1.6e-07,5.4e-08,–,–,–
CCn1c(=C(C#N)C(=O)NCC#N)sc(=CNc2ccc3c(c2)c(C2CCN(C4CC4)CC2)cn3C)c1=O [B115],1.1e-07,1.3e-09,1.3e-07,3.7e-08,–,–,–
